In general, inhibition refers to the drop in the measured response relative to a control, in per cent. In general, Ki refers to a dissociation constant, usually derived from enzyme kinetics or from competition with a known ligand.

The text below walks through data of ChEMBL document CHEMBL5131388, “Discovery of novel brain-penetrant GluN2B NMDAR antagonists via pharmacophore-merging strategy as anti-stroke therapeutic agents” (Eur J Med Chem, 2022).

The target of assay [1] is Ionotropic glutamate receptor NMDA 1/2C (Homo sapiens) (UniProt Q05586+Q14957). Put plainly: Antagonist activity at GluN1/GluN2C NMDA receptor (unknown origin) transfected in HEK293 cells assessed as inhibition of glycine induced current response at 10 uM in presence of L-glutamate by patch-clamp method. The assay is classed as cell-based. Background: Patch clamp records ionic current or voltage across a cell membrane.

Assay [2] concerns the target Glutamate NMDA receptor; GRIN1/GRIN2A (Homo sapiens) (UniProt Q05586+Q12879). Put plainly: Antagonist activity at GluN1/GluN2A NMDA receptor (unknown origin) transfected in HEK293 cells assessed as inhibition of glycine induced current response at 10 uM in presence of L-glutamate by patch-clamp method. The assay is classed as cell-based.
In assay [3] the target is Ionotropic glutamate receptor NMDA 1/2D (Homo sapiens) (UniProt Q05586+O15399). Put plainly: Antagonist activity at GluN1/GluN2D NMDA receptor (unknown origin) transfected in HEK293 cells assessed as inhibition of glycine induced current response at 10 uM in presence of L-glutamate by patch-clamp method. The assay is classed as cell-based.
For assay [4], the target named is Glutamate NMDA receptor; GRIN1/GRIN2B (Homo sapiens) (UniProt Q05586+Q13224). Put plainly: Antagonist activity at GluN1/GluN2B NMDA receptor (unknown origin) transfected in HEK293 cells assessed as inhibition of glycine induced current response at 10 uM in presence of L-glutamate by patch-clamp method. The assay is classed as cell-based. The following applies: filed as antagonist.

Assay [5] can be described thus: Neuroprotective activity against NMDA-induced neurotoxicity in Sprague-Dawley rat hippocampal neurons assessed as increase in cell viability at 0.1 uM incubated for 18 hrs followed by NMDA addition and measured after 0.5 hrs by MTT assay. The assay is classed as functional, Hippocampal neurone. The note with it: time 18.5 hrs.
Assay [6] can be described thus: Neuroprotective activity against NMDA-induced neurotoxicity in Sprague-Dawley rat hippocampal neurons assessed as increase in cell viability at 1 uM incubated for 18 hrs followed by NMDA addition and measured after 0.5 hrs by MTT assay. The following applies: time 18.5 hrs. The assay is classed as functional, Hippocampal neurone.
Assay [7] can be described thus: Neuroprotective activity against NMDA-induced neurotoxicity in Sprague-Dawley rat hippocampal neurons assessed as increase in cell viability at 10 uM incubated for 18 hrs followed by NMDA addition and measured after 0.5 hrs by MTT assay. The assay is classed as functional, Hippocampal neurone. The note with it: time 18.5 hrs.
Assay [8] deals with Rattus norvegicus. Put plainly: Neuroprotective activity in Sprague-Dawley rat model of middle cerebral artery occlusion-induced ischemia-reperfusion injury assessed as decrease in cerebral infarction rate at 20 mg/kg, po measured 24 hrs post injury by TTC staining based histological analysis. On the set-up: scale not given: the % may be the effect or the level left. The assay is classed as functional.

Assay [9] concerns Rattus norvegicus. Put plainly: Neuroprotective activity in Sprague-Dawley rat model of middle cerebral artery occlusion-induced ischemia-reperfusion injury assessed as decrease in neurological score at 20 mg/kg, po measured 24 hrs post injury by TTC staining based histological analysis. The assay is classed as functional.
A further assay concerns the target Glutamate NMDA receptor. Kind of assay: Displacement of [3H] ifenprodil from Wistar rat glutamate NMDA receptor incubated for 2 hrs by scintillation counting method. The assay is classed as protein-complex assay.

On to `O=C1OC(CCCN2CCN(Cc3ccc(C(F)(F)F)cc3)CC2)c2ccccc21` (racemic), for which the inhibition in assay [1] turned out to be 12%; in assay [2], 26.6%; in [3] it was 10.3%; in [4], 75.4%.

With `O=C1OC(CCCN2CCN(Cc3ccc(Br)cc3)CC2)c2ccccc21` (stereo not given), the results for the Activity in assay [5], in assay [6] and in [7] were 46.12%, 45.56% and 46.13%, respectively.

With `O=C1OC(CCCN2CCC(Cc3ccccc3)CC2)c2ccccc21` (stereo not given), the figures for the Activity in assay [5], in assay [6] and in [7] were 49.13%, 78.13% and 79.12%, respectively.

As for `O=C1OC(CCCN2CCN(Cc3ccc(F)cc3)CC2)c2ccccc21` (stereo not given), the figures for the Activity in assay [5], in assay [6] and in assay [7] were 52.58%, 64.11% and 72.2%, respectively.

`O=C1OC(CCCN2CCCC2)c2ccccc21` (stereo not given): the Activity in assay [5] was found to be 56.53%; in assay [6], 65.3%; in [7], 73.16%.

`O=C1OC(CCCN2CCCCC2)c2ccccc21` (stereo not given): the values for the Activity in assay [5], in assay [6] and in assay [7] were 63.96%, 70.2% and 77.85%, respectively.

Consider `O=C1OC(CCCN2CCN(Cc3ccc(C(F)(F)F)cc3)CC2)c2ccccc21` (single isomer, unassigned; enantiomer A) [listing 1 of 2 here], for which the Activity in assay [5] (0.1 µM) is given as 62.81%; in assay [6] (1 µM), 71.91%; in assay [7] (10 µM), 81.02%.

As to `O=C1OC(CCCN2CCC(O)CC2)c2ccccc21` (stereo not given), the Activity in assay [5] was found to be 58.83%; in assay [6], 67.72%; in assay [7] it was 77.13%.

On to `O=C1OC(CCCN2CCN(Cc3ccncc3)CC2)c2ccccc21` (stereo not given), for which the figures for the Activity in assay [5], in [6] and in [7] were 57.55%, 66.35% and 75.54%, respectively.

Take `Cc1cccc(CN2CCN(CCCC3OC(=O)c4ccccc43)CC2)c1` (stereo not given): the Activity amounted to 53.08% in assay [5], 61.15% in assay [6] and 67.43% in assay [7].

For `CC(C(O)c1ccc(O)cc1)N1CCC(Cc2ccccc2)CC1` (stereo not given) [IFENPRODIL], the inhibition in [1] was 28.8%; in assay [2], 13.1%; in [3] it was 18.1%; in [4], 135%. In addition, the Activity was determined as 14.35% in the assay on Rattus norvegicus [8]; 65.93% in assay [5]; 76.98% in [6]; 1.75 in the assay on Rattus norvegicus [9]; 85.83% in [7].

In the case of `CCCCC1OC(=O)c2ccccc21` (stereo not drawn) [RAC-3-N-BUTYLPHTHALIDE], the Activity with Rattus norvegicus [8] amounted to 18.81%; in [5], 55.71%; in assay [6], 57.94%; with Rattus norvegicus [9] it was 2.13; in assay [7], 73.45%. The same molecule displayed a Ki on Glutamate NMDA receptor of 14.8 nM.

Take `O=C1OC(CCCN2CCN(Cc3ccc(C(F)(F)F)cc3)CC2)c2ccccc21` (single isomer, unassigned; enantiomer B) [listing 1 of 2 here]: the inhibition turned out to be 16.2% in assay [1], 25.9% in assay [2], 20.3% in [3] and 81% in assay [4].

Regarding `CN(C)CCC1OC(=O)c2ccccc21` (stereo not given), the figures for the Activity in assay [5], in [6] and in assay [7] were 56.09%, 71.66% and 73.56%, respectively.

As to `O=C1OC(CCCN2CCN(Cc3ccccc3)CC2)c2ccccc21` (stereo not given), the values for the Activity in [5], in assay [6] and in assay [7] were 67.64%, 79.85% and 81.91%, respectively. The molecule further came in with a Ki on Glutamate NMDA receptor of 13.6 nM.

In the case of `O=C1OC(CCCN2CCN(Cc3ccc(Cl)cc3)CC2)c2ccccc21` (stereo not given), the Activity is on record as 49.49% in assay [5], 54.83% in assay [6] and 60.33% in assay [7].

Turning to `O=C1OC(CCCN2CCN(Cc3cccc(Cl)c3)CC2)c2ccccc21` (stereo not given), the values for the Activity in assay [5], in assay [6] and in assay [7] were 49.69%, 55.95% and 62.96%, respectively.

For the molecule `O=C1OC(CCCN2CCN(Cc3ccccn3)CC2)c2ccccc21` (stereo not given), the Activity in assay [5] is 57.46%; in assay [6], 67.89%; in assay [7], 74.65%.

For the molecule `O=C1OC(CCCN2CCN(Cc3ccc(C(F)(F)F)cc3)CC2)c2ccccc21` (single isomer, unassigned; enantiomer A) [listing 2 of 2 here], the inhibition is 14.9% in assay [1], 23.4% in [2], 16.7% in assay [3] and 71.9% in assay [4].

Turning to `CS(=O)(=O)c1ccc(CN2CCN(CCCC3OC(=O)c4ccccc43)CC2)cc1` (stereo not given), the values for the Activity in assay [5], in assay [6] and in assay [7] were 50.17%, 55.51% and 61.02%, respectively.

Regarding `CN(C)CCCC1OC(=O)c2ccccc21` (stereo not given), the results for the Activity in assay [5], in assay [6] and in assay [7] were 48.37%, 77.37% and 78.18%, respectively.

Take `Cc1ccc(CN2CCN(CCCC3OC(=O)c4ccccc43)CC2)cc1` (stereo not given): the results for the Activity in assay [5], in assay [6] and in assay [7] were 51.66%, 64.44% and 68.38%, respectively.

In the case of `O=C1OC(CCCN2CCN(Cc3ccc4ccccc4n3)CC2)c2ccccc21` (stereo not given), the Activity in assay [5] was found to be 49.69%; in assay [6] it was 55.95%; in assay [7] it was 62.96%.

Take `O=C1OC(CCCN2CCN(Cc3ccc(C(F)(F)F)cc3)CC2)c2ccccc21` (single isomer, unassigned; enantiomer B) [listing 2 of 2 here]: the Activity in [5] (0.1 µM) is 65.86%; in assay [6] (1 µM), 81.02%; in [7] (10 µM), 81.82%.

Consider `O=C1OC(CCN2CCc3sccc3C2)c2ccccc21` (stereo not given), for which the Activity in assay [5] stood at 45.88%; in [6], 58.81%; in assay [7], 66.05%.

For `O=C1OC(CCCN2CCN(Cc3cccnc3)CC2)c2ccccc21` (stereo not given), the Activity in assay [5] came out at 51.84%; in [6], 55.95%; in assay [7] it was 63.33%.

As for `O=C1OC(CCN2CCCC2)c2ccccc21` (stereo not given), the results for the Activity in [5], in [6] and in assay [7] were 57.21%, 66.34% and 70.66%, respectively.

As for `O=C1OC(CCCN2CCOCC2)c2ccccc21` (stereo not given), the Activity in assay [5] was 57.15%; in [6] it was 65.19%; in assay [7] it was 76.22%.

As for `O=C1OC(CCCN2CCc3sccc3C2)c2ccccc21` (stereo not given), the Activity in [5] is on record as 49.39%; in [6] it was 61.1%; in assay [7], 66.52%.

On to `N#Cc1ccc(CN2CCN(CCCC3OC(=O)c4ccccc43)CC2)cc1` (stereo not given), for which the Activity in assay [5] is recorded as 49.49%; in [6] it was 54.83%; in assay [7], 60.33%.

For the molecule `COc1ccc(CN2CCN(CCCC3OC(=O)c4ccccc43)CC2)cc1OC` (stereo not given), the values for the Activity in assay [5], in [6] and in assay [7] were 46.58%, 47.16% and 48.44%, respectively.

For the molecule `O=C1OC(CCCN2CCC(CO)CC2)c2ccccc21` (stereo not given), the Activity in assay [5] is on record as 60.19%; in [6], 74.86%; in assay [7] it was 78.14%.

`O=C1OC(CCCN2CCN(Cc3ccc(F)c(F)c3)CC2)c2ccccc21` (stereo not given): the results for the Activity in assay [5], in assay [6] and in assay [7] were 57.3%, 65.4% and 75.45%, respectively.

With `O=C1OC(CCCN2CCN(Cc3cccc([N+](=O)[O-])c3)CC2)c2ccccc21` (stereo not given), the results for the Activity in assay [5], in assay [6] and in assay [7] were 53.23%, 69.03% and 73.28%, respectively.
